Active and inactive are the calls of the source. The calls are words filed in the database; no cut-off is given here.
Key:
HCT-116 [1] = assay: Induction of apoptosis in human HCT116 cells assessed as accumulation of cleaved caspase-7 at 10 uM after 48 hrs by Western blot analysis; type: functional, cell-based
HCT-116 [2] = assay: Antiproliferative activity against human HCT116 cells assessed as cell growth inhibition after 12 to 48 hrs by WST-8 assay; type: functional, cell-based
HCT-116 [3] = assay: Induction of apoptosis in human HCT116 cells assessed as fragmented nuclei at 10 uM after 48 hrs by fluorescence microscopy method; type: functional, cell-based
HCT-116 [4] = assay: Antiproliferative activity against human HCT116 cells assessed as cell growth inhibition at 10 to 40 uM by WST-8 assay; type: functional, cell-based; conditions: TDE = time-dependent effect
HCT-116 [5] = assay: Induction of apoptosis in human HCT116 cells assessed as increase in cleaved PARP level at 10 uM by Western blot analysis; type: functional, cell-based; conditions: TDE = time-dependent effect
HCT-116 [6] = assay: Anticlonogenic activity against human HCT116 cells at 2 uM after 7 days using crystal violet staining; type: functional
HCT-116 [7] = assay: Induction of apoptosis in human HCT116 cells assessed as shrunken nuclei at 10 uM after 48 hrs by fluorescence microscopy method; type: functional, cell-based
HCT-116 [8] = assay: Induction of apoptosis in human HCT116 cells assessed as condensed chromatin at 10 uM after 48 hrs by fluorescence microscopy method; type: functional, cell-based

SMILES	Activity (HCT-116 [1])	growth inhibition (GI) (HCT-116 [2])	Activity (HCT-116 [3])	growth inhibition (GI) (HCT-116 [4])	Activity (HCT-116 [5])	Activity (HCT-116 [6]) [%]	Activity (HCT-116 [7])	Activity (HCT-116 [8])
COc1cc2c(c(OC)c1OC)-c1c(cc3c(c1OC)OCO3)C[C@H](C)[C@](C)(O)C2	Active	–	–	–	–	–	–	–
COc1cc2c(c(OC)c1OC)-c1c(cc3c(c1OC)OCO3)C[C@@H](C)[C@](C)(O)C2	Active	Dose-dependent effect	Active	tde	tde	50	Active	Active

From ChEMBL document CHEMBL1833922, “A compound isolated from Schisandra chinensis induces apoptosis” (2011)
